{"source": "patent US20230233488A1", "about": "“NOVEL USE OF A MODULATOR OF GLUCOSYLCERAMIDE DEGRADATION FOR VIRAL INFECTIONS” (SPEDDING RESEARCH SOLUTIONS, SAS, priority 2020, published 2023)", "key": {"[1]": {"system": "dengue virus serotype 2—strain 16681 (DENV2)", "assay": "DENV2 infection of Huh7 cells, infectious virus release in supernatants (plaque assay on BHK cells)", "type": "cell-based", "description": "• 2.1 Material and methods Huh7, human hepatoma cells were used for all primary experiments. For all siRNA experiments, cells were seeded in 24-well plates at a concentration of 2×10^5 cells/well in DMEM and 10% FBS. […] During siRNA and drug treatment the media was removed and replaced with DMEM and 2% FBS and a corresponding concentration of siRNA or ambroxol. During viral infection, all media is removed and set aside, and a viral inoculum is added to the cells. The cells and viral inoculum are incubated for 1 hr at room temperature on a rocker. The virus is then aspirated from cells, cells are washed with 1Xphosphate buffer saline (PBS), the media is re-added to the cells, and cells are incubated at 37° C. and 5% CO2 for 24 h. […] Plaque assay analysis of infectious virus release from supernatants was conducted on baby hamster kidney cells (BHK cells). BHK cells are maintained in MEM with 10% FBS. For plaque assays, BHKs are seeded in 6 well plates at a density of […] cells/well. The following day, dilutions of viral supernatants collected from samples are applied to BHK cells, followed by a 1 hr incubation at room temperature, and then cells are overlaid with MEM containing 5% FBS and 2% agarose. Plaques are counted at 6 days post infection. For qRT-PCR analysis, cells are collected post infection in TRIzol reagent (Invitrogen), and RNA is extracted per manufacturer's protocol. A one-step qRT-PCR kit from Agilent (Brilliant III Ultra Fast SYBR Green qRT-PCR Kit) is used to assess viral genome copies. A standard curve of viral RNA is generated using a viral RNA from a cDNA subclone of DENV2 as described in Gullberg RC, et al. 2018. Copies of viral RNA are normalized to the ribosomal protein lateral stalk protein subunit PO (RPLPO) gene using the delta delta Cq method also described in Gullberg RC et al. 2018 (cited above).\nHuh7 cells were treated with siRNA targeting glucosylceramidase beta 1 (GBA1) and infected with dengue virus serotype 2—strain 16681 (DENV2) with a multiplicity of infection or MOI=0.3) according to known techniques (Gullberg RC et al. 2018 cited above). After 24 hours post infection (hpi), supernatants were collected and analyzed via plaque assay on baby hamster kidney cells (BHK cells) for infectious virus release.\nHuh7 cells were pre-treated with Ambroxol hydrochloride at 0.391, 0.781, 1.56, 3.125, 6.25, 12.5, 25, 50, 100, and 200 μM for 24 h, followed by DENV2 infection with MOI=0.1; or MOI=5). 24 hours post infection, supernatants were collected and analyzed via plaque assay on BHK cells.\nHuh7 cells were treated with siRNAs targeting GBA1 and glucosylceramidase beta 2 (GBA2) enzymes followed by DENV2 infection with MOI=0.1; or MOI=5). 24 hpi, supernatants were collected and analyzed via plaque assay on BHK cells while RNA was extracted from cells and analyzed via qRT-PCR for DENV2 genome replication. Results"}, "[2]": {"system": "A549-ACE2 cells", "assay": "Cytotoxicity in A549-ACE2 cells (AlamarBlue)", "conditions": "48 h incubation, 10^−8 to 5.10^−5 M"}, "[3]": {"system": "SARS-CoV-2", "assay": "Antiviral activity against SARS-CoV-2 in A549-ACE2 cells (supernatant viral load by RT-qPCR)", "conditions": "for antiviral effect on SARS-CoV-2 replication / viral load: 10^−8 to 5.10^−5 M, 48 h, hydrochloride"}, "[4]": {"system": "Huh7 cells", "assay": "Cytotoxicity in Huh7 cells (AlamarBlue)", "type": "cell-based, human", "conditions": "0.391 to 200 μM"}}}
{"molecule": "Cl.Nc1c(Br)cc(Br)cc1CN[C@H]1CC[C@H](O)CC1", "note": "[Ambroxol, trans-4-(2-Amino-3,5-dibromobenzylamino) cyclohexanol hydrochloride]", "values": [{"measurement": "potency against Dengue virus relative to SARS-CoV-2", "setting": "[1]; Dengue versus SARS-CoV-2", "result": 10, "unit": "fold"}, {"measurement": "IC50", "setting": "[1]; Dengue virus, DENV2, MOI 0.1, read-out: IC50 against Dengue virus", "result": 0.86, "unit": "µM"}, {"measurement": "concentration above which no detectable virus was released from cells", "setting": "[1]; MOI=0.1, Huh7 cells, 24 h post infection", "result": "above 6.25 μM"}, {"measurement": "DENV2 release from Huh7 cells, low MOI", "setting": "[1]; MOI=0.1, all concentrations tested (0.391 to 200 μM), 24 h pre-treatment, 24 h post infection", "result": "statistically significant reduction of DENV2 release"}, {"measurement": "concentration giving a statistically significant reduction of DENV2 release", "setting": "[1]; MOI=5, Huh7 cells, 24 h post infection", "result": "≥ 12.5", "unit": "µM"}, {"measurement": "DENV2 release from Huh7 cells, high MOI", "setting": "[1]; MOI=5, all concentrations tested (0.391 to 200 μM), 24 h post infection", "result": "reduced DENV2 release"}, {"measurement": "cell viability (cytotoxicity)", "setting": "[2]", "result": "no toxic effects on cell viability"}, {"measurement": "antiviral effect on SARS-CoV-2 replication / viral load", "setting": "[3]", "result": "significant concentration-dependent antiviral effect"}, {"measurement": "antiviral effect on SARS-CoV-2 replication / viral load", "setting": "[3]; listed as ambroxol", "result": "concentration-dependent effect reducing SARS-CoV-2 viral load"}, {"measurement": "maximal antiviral effect compared with remdesivir", "setting": "[3]; dose-response of FIG. 1C", "result": "equivalent to that of remdesivir"}, {"measurement": "IC50", "setting": "[3]; read-out: 50% effective concentration (IC50), SARS-CoV-2 supernatant viral load, MOI 0.1, 48 h post infection, hydrochloride", "result": 22, "unit": "µM"}, {"measurement": "cytopathic effect on cells", "setting": "[4]", "result": "only the highest concentrations (100 μM and 200 μM) having any cytopathic effect"}]}
